Data on 20 compounds can be found in ChEMBL document CHEMBL2021857, “Synthesis, biological activity and docking study of imidazol-5-one as novel non-nucleoside HIV-1 reverse transcriptase inhibitors” (Bioorg Med Chem, 2012).

One experiment concerns the target Human immunodeficiency virus type 1 reverse transcriptase (Human immunodeficiency virus 1) (UniProt Q72547). The experiment is described as follows: Inhibition of HIV-1 reverse transcriptase at 20 ug after 1 hr by colorimetry.
In the case of `CC1=N/C(=C/c2ccc(Cl)cc2)C(=O)N1Cc1ccncc1`, the inhibition (commonly the drop in the measured response relative to a control, in per cent) is 69.8%. In turn, `CC1=N/C(=C/c2ccc(Cl)cc2Cl)C(=O)N1Cc1ccncc1` yielded an inhibition of 62.8%. The compound `COc1ccc(/C=C2/N=C(C)N(Cc3ccncc3)C2=O)cc1` registered an inhibition of 59.2%. On the same count and under the same terms, under `O=C1/C(=C\c2ccccc2)N=C(c2ccccc2)N1Cc1ccncc1` stands 54.4%; under `COc1cc(/C=C2/N=C(C)N(Cc3ccncc3)C2=O)cc(OC)c1OC`, 67%. Regarding `CC1=N/C(=C/c2ccc(N(C)C)cc2)C(=O)N1Cc1ccncc1`, the inhibition is 58.1%. As to `CN(C)c1ccc(/C=C2/N=C(c3ccccc3)N(Cc3ccncc3)C2=O)cc1`, the inhibition came out at 36.8%. Same read-out and setting: the value for `C/C=C1/N=C(C)N(Cc2ccncc2)C1=O` was 64.3%; that for `O=C1/C(=C\c2ccc(Cl)cc2Cl)N=C(c2ccccc2)N1Cc1ccncc1` was 70%; that for `CC1=N/C(=C/c2c[nH]c3ccccc23)C(=O)N1Cc1ccncc1` was 58.7%.

Compound `COc1cc(/C=C2/N=C(c3ccccc3)N(Cc3ccncc3)C2=O)ccc1O` gave an inhibition of 50.2%. For the compound `CC1=N/C(=C/c2ccco2)C(=O)N1Cc1ccncc1`, the inhibition turned out to be 92.7%. On the same count and under the same terms, under `O=C1/C(=C\c2ccc(Cl)cc2)N=C(c2ccccc2)N1Cc1ccncc1` stands 47%; under `O=C1/C(=C\c2ccco2)N=C(c2ccccc2)N1Cc1ccncc1`, 62.5%; under `O=C1/C(=C\c2ccccc2O)N=C(c2ccccc2)N1Cc1ccncc1`, 43.2%. In turn, `CC1=N/C(=C/c2ccccc2O)C(=O)N1Cc1ccncc1` gave an inhibition of 74.2%. As to `COc1cc(/C=C2/N=C(c3ccccc3)N(Cc3ccncc3)C2=O)cc(OC)c1OC`, the inhibition was found to be 57.8%. Turning to `CC1=N/C(=C/c2ccccc2)C(=O)N1Cc1ccncc1`, the inhibition amounted to 60.7%. Regarding `COc1ccc(/C=C2/N=C(c3ccccc3)N(Cc3ccncc3)C2=O)cc1`, the inhibition stood at 50%.

Turning to `C/C=C1/N=C(c2ccccc2)N(Cc2ccncc2)C1=O`, the inhibition turned out to be 61.5%.

Another experiment addresses Human immunodeficiency virus type 1 reverse transcriptase (Human immunodeficiency virus 1, UniProt Q72547). Nature of the experiment: Inhibition of HIV-1 reverse transcriptase after 1 hr by colorimetry.
As to `CC1=N/C(=C/c2ccc(Cl)cc2)C(=O)N1Cc1ccncc1`, the IC50 (usually the point on the concentration scale where inhibition reaches its midpoint) stood at 3.9 µM. In other words, the single-digit micromolar range. Same read-out and setting: the value for `O=C1/C(=C\c2ccc(Cl)cc2Cl)N=C(c2ccccc2)N1Cc1ccncc1` was 3.8 µM. `CC1=N/C(=C/c2ccco2)C(=O)N1Cc1ccncc1` returned a half-maximal inhibitory concentration (IC50) of 2.5 µM.

Regarding `CC1=N/C(=C/c2ccccc2O)C(=O)N1Cc1ccncc1`, the IC50 came to 3.5 µM.
